Source: patent publication US20260193647A1, “MIRNA-BASED CANCER THERAPY WITH A TUMOR-NAVIGATING PEPTIDE” (The Board of Trustees of the Universities of Illinois, priority 2022, published 2026)
Ends that are not written are not given here.

Assays:
miR21 = miR21 expression by qPCR in treated cells; type: cell-based, human
SJ-GBM2 cells = assay: cells; conditions: Homo sapiens, 24 h, read-out: IC50 (cell viability)
Procedure: (§1) Cell viability was evaluated by a CCK-8 assay (Dojindo, Japan). Cells were seeded at a density of 4,000 cells per well in 100 μl of growth medium in 96-well plates and grown overnight. Then, the cells were exposed to antisense miR-20a alone, p28 alone or negative control or AmiR20-p28 over a range of concentrations and incubated for 24 hr. According to the manufacturer's instructions, 10 μl of CCK-8 solution was added to each well, followed by incubation for 1 hr at 37° C. The absorbance at 450 nm was determined by a multiplate reader.
(§2) Cell viability (%)=Abs(sample)−Abs(blank)/Abs(no treatment)−Abs(blank)×100

[1] = human, in vivo; cited from earlier work
[2] = system: SJ-GBM2, CHLA-200, LN-229 and astrocytes; assay: CCK-8 cell viability assay, set of cell lines tested; type: cell-based, human; conditions: component alone; 24 hr
Procedure: as §1, §2

miR-20a = miR-20a expression levels by stem loop qPCR in treated cells; type: cell-based, human; conditions: any of the cell lines tested; administered alone, 10 nM, 24 hr
Text: Micro RNA enriched fraction was extracted using the miRNeasy Mini Kit (Qiagen, Catalog #217004) following the manufacturer's instructions. Stem loop real-time qPCR was used to analyze miRNA expression. We designed miR-20a stem loop RT primers and amplification primers according to a previously described method 79. cDNA was synthesized from extracted RNA using unique stem loop RT primers. The sequence of the stem loop primer for miR-20a was 5′-[…]-3′ (SEQ ID NO:7). Reverse transcriptase reactions contained the following reagents: 10 ng of RNA sample, 60 nM stem-loop RT primer, 1×RT buffer, 0.25 mM dNTP, and 4 U/μl reverse transcriptase. Reactions were performed by incubation at 16° C. for 30 min, 42° C. for 30 min and 85° C. for 5 min. Real-time PCR (7300 Real time PCR Systems, Applied Biosystems, CA) was performed using the specific forward primer for miR-20a (5′-[…]-3′ (SEQ ID NO:8)) and a universal reverse primer (5′-GTGCA GGGTC CGAGGT-3′ (SEQ ID NO:9)). The 20-μl PCR mixture included 1×SYBR Premix (Invitrogen), 2 μl of RT products and each forward and reverse primer at 10 nM. Reactions were performed by incubation in a 96-well plate at 95° C. for 30 sec, followed by 35 cycles of 95° C. for 30 sec and 60° C. for 30 sec. U6 was used as an internal control to normalize the level of target miRNAs. The results were verified by performing PCR using M13 modified forward and reverse primers specific to stem loop sequence. The PCR products were visualized in 2% agarose gels and DNA-sequence was confirmed. Human tumor and serum samples were obtained from patients who had signed informed consent and the institutional review board approval was obtained in Pediatric Brain Tumor Consortium (PBTC-041) participating sites.

[3] = system: SJ-GBM2 cells, CHLA-200 cells and astrocytes; assay: Cellular entry by confocal microscopy; type: cell-based, human; conditions: 20 μM Alexa Fluor labeled, 2 hr, 37° C.; pGBM cells vs normal astrocytes
Procedure: p28 or AmiR20-p28 were dissolved in PBS mixed with Alexa Fluor 568 dye (Invitrogen) at a 1:2 peptide/dye ratio 37. Sodium bicarbonate (pH 8.5) was added and incubated at 4° C. with continuous stirring. Alexa Fluor 568 labeled p28 and AmiR20-p28 were dialyzed against cold-PBS using Slide-A-Lyzer Dialysis Cassettes (Pierce Biotechnology). Similarly, p28 was labeled with ICG as described previously.
SJ-GBM2 cells, CHLA-200 cells and astrocytes (2×10^4 cells/well) were cultured on glass slides placed in 24-well plates. After overnight culture, the cells were washed with PBS and incubated with 20 μM Alexa Fluor 568-labeled p28 peptide in medium (5% FBS and without phenol red) for 2 hr at 37° C. Cells were fixed with 2% formalin for 10 min. After washing, slides were prepared and mounted with Vectashield with DAPI (Vector Laboratories, Catalog #94010). Slides were examined by an LSM 710 confocal laser scanning microscope (Zeiss). Images were processed using ZEN software (ZEISS ZEN Lite). As for a GSC marker, the slides were first incubated with Alexa Fluor 568-labeled AmiR20-p28 for 2 hr at 37° C. Cells were fixed with 2% formalin for 10 min. After washing, slides were incubated with blocking buffer for 1 hr at room temperature, followed by consecutive staining with anti-CD133 antibody (1:500, R&D Systems FAB11331G). Slides were washed and mounted with Vectashield containing DAPI. […]

With “AmiR21-p28: cell-penetrating peptide p28 chemically conjugated to antisense-miR21 (LSTAADMQGVVTDGMASGLDKDYLKPDD; also: chemically conjugated to antisense miR-21, site not given here; UniProt P00282 70-97, looked up, fragment)” the “endogenous miR21” value (miR21; pGBM and aGBM cells, Ten nM) was “significantly reduced the endogenous miR21”.
For Cn1nnc2c(C(N)=O)ncn2c1=O [TMZ, temozolomide], the IC50 (SJ-GBM2 cells) was ~600 µM.
In the case of “p28: CPP derived from Pseudomonas aeruginosa azurin that preferentially enters cancer cells; carrier component tested alone [reference compound]”, the tolerability in patients [1] is listed as “well tolerated without apparent adverse effects, toxicity, or immunogenicity”, the “inhibitory effect on cell viability” value [2] is listed as “neither p28 nor AmiR20, alone had an inhibitory effect on cell viability” and the “inhibitory effect on miR-20a expression” value (miR-20a) is listed as “did not have a significant inhibitory effect”. The “cellular entry (confocal images)” value [3] was “preferentially penetrated” and the “reduction of miR21” value (miR21; any cell lines tested, component alone) was “did not induce a significant reduction of miR21”.
